According to patent publication US20230365639A1, “DEFENSIN FRAGMENT DERIVED LIPOPEPTIDES FOR TREATMENT OF DRUG-RESISTANT MICROORGANISMS” (priority 2020, published 2023):

How the values were obtained:
[1] = tested on: bacteria from the ESKAPE panel; format: cell-based; details: broth microdilution, 1.17-150 μM peptide, 2 hours
Protocol: Methods: Broth microdilution assay. Log-phase bacteria were collected by centrifugation (2500 rpm, 10 min, 4° C.), washed twice with 10 mM sodium phosphate buffer containing 1% (w/v) TSB and the optical density at 600 nm was adjusted to 0.1. Approximately 5×10^5 CFU/ml bacteria were incubated with serial peptide concentrations (1.17-150 μM) in a final volume of 100 μl in 10 mM sodium phosphate buffer containing 1% (w/v) TSB for 2 hours at 37° C. After incubation, 100 μl of 6% TSB (w/v) was added and absorbance was measured at 600 nm (Tecan, Switzerland) and monitored for 18 hours. Afterwards, 100 μl per well was plated on LB agar to determine the number of viable bacteria microbiologically. Bactericidal activity was expressed as the LC99.9, the lowest concentration that killed ≥99.9% of bacteria.

[2] = tested on: ypuA promoter; assay: ypuA promoter luciferase reporter gene assay; format: cell-based, Bacillus subitilis 1S34
Protocol: A specific bacterial reporter strain with the genetic background of Bacillus subitilis 1S34, carrying the promoter of the ypuA gene, fused to the firefly luciferase reporter gene, was used to identify cell envelope-related damage caused by treatment with antimicrobial compounds. Bacteria were cultured to an OD600 of 0.9 in LB broth with 5 μg/ml erythromycin at 37° C. and diluted to an OD600 of 0.02. Serial peptide dilutions (0.15-150 μM) were prepared in a microtiter plate and incubated with the adjusted bacterial suspension at 37° C. for 1 hour. Subsequently, citrate buffer (0.1 M, pH 5) containing 2 mM luciferin (Iris Biotech, Germany) was added and luminescence was measured using a microplate reader (Tecan, Switzerland).

[3] = tested on: S. Typhimurium; assay: Acute gastrointestinal infection caused by S. Typhimurium; format: in vivo, mice
Protocol: Methods: Analysis of bacterial loads in feces. Fresh fecal samples were collected and weighted. Samples were homogenized in 1 ml LB media by bead-beating with 1 mm zirconia/silica beads twice for 25 s using a Mini-Beadbeater-96 (BioSpec). To determine CFUs, dilutions of homogenized samples were plated on LB plates with 50 μg/ml kanamycin. Analysis of bacterial loads in intestinal content and systemic organs. All mice were euthanized by asphyxiation with CO2 at indicated time points. Intestinal tissues (small intestine, cecum, colon) were removed aseptically. To collect intestinal content, organs were flushed with PBS. Organs were opened longitudinally, cleaned thoroughly with PBS and weighted. Organs and content were homogenized in PBS using a Polytron homogenizer ([…]). Dilutions of homogenized samples were plated on LB plates containing 50 μg/ml kanamycin to determine CFUs. For S. Typhimurium infection experiments, age- and sex-matched mice between 10 and 14 weeks of age were used. Both-female and male mice were used in experiments. Water and food were withdrawn for 4 hours before mice were treated with 20 mg/mouse of streptomycin by oral gavage. Afterwards, mice were supplied with water and food ad libitum. 20 hours after streptomycin treatment, water and food were withdrawn again, 4 hours before the mice were orally infected with 10^5 CFU of S. Typhimurium in 200 μl PBS. […]

Pam2-Glc-Suc-RGKAKCCK [Pam-1] was tested. Which bactericidal activity [1] did it give?
The bactericidal activity was “no or low bactericidal activity”.

What about the “cell envelope damage (ypuA reporter)” value [2] of the same substance?
The value was “little cell envelope damage”.

What about the “CFU of S. Typhimurium in cecum content” value ([3]; 250 μg orally 6 and 22 hours post infection, vs PBS, Mann-Whitney test) of the same substance?
The value was “significantly reduced”.

What about the “CFU's in gut content and gut tissue, acute model (summary)” value ([3]; mouse, in vivo) of the same substance?
The value was “significant CFU reduction in the acute model and this only for gut content”.
